The subject of one test is CHO-K1. Description: Counterscreen for antagonists of the orexin 1 receptor (OX1R; HCRTR1): Homogeneous time resolved fluorescence (HTRF)-based cell-based dose response assay to identify antagonists of the parental CHO-K1 cell line. [Related pubchem assays (depositor defined):AID434989, AID435008, AID463079, AID485270, AID492963, AID492964, AID492965, AID493232, AID504699, AID504701]. It counts as functional. The conditions noted are these: Cricetulus griseus. (Counterscreens check selectivity or assay interference.)

Test [1] addresses T1, Orexin receptor type 2 (Homo sapiens, UniProt O43614). The test is described as follows: Counterscreen assay for antagonists of the orexin 1 receptor (OX1R; HCRTR1): Fluorescence-based cell-based dose response assay for antagonists of the orexin 2 receptor (OX2R; HCRTR2), run by assay provider. Format: functional.
Test [2] deals with T2, Orexin/Hypocretin receptor type 1 (Homo sapiens, UniProt O43613). Description: Homogeneous Time Resolved Fluorescence (HTRF)-based cell-based high throughput dose response assay for antagonists of the orexin 1 receptor (OX1R; HCRTR1). [Related pubchem assays (depositor defined):AID434989, AID435008, AID463079, AID485270, AID492963, AID492964, AID492965, AID493232, AID504717, AID504718]. Format: functional. A general note: Time-resolved FRET reads energy transfer from a long-lived donor to a nearby acceptor.
T2 sequence (O43613 whole entry): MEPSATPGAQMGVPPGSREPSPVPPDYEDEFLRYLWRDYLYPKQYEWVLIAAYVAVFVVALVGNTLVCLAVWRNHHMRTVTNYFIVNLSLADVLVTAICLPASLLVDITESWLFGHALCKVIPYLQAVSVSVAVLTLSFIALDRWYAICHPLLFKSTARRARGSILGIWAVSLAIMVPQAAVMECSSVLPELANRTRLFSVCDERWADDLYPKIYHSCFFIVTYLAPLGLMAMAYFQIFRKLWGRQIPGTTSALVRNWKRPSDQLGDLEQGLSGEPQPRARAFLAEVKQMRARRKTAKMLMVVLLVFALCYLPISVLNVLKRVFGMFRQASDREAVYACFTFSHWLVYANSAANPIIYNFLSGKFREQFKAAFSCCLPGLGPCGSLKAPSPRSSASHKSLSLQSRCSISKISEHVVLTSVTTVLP

In test [3] the target is T2, Orexin/Hypocretin receptor type 1. The test is described as follows: Fluorescence-based cell-based high throughput dose response assay for antagonists of the orexin 1 receptor (OX1R; HCRTR1). [Related pubchem assays (depositor defined):AID434989, AID435008, AID463079, AID485270, AID492963, AID492964, AID492965, AID493232, AID504717, AID504718]. Format: functional.
The nature of test [4]: Counterscreen for antagonists of the orexin 1 receptor (OX1R; HCRTR1): Fluorescence-based cell-based high throughput dose response assay to identify antagonists of the parental CHO cell line. [Related pubchem assays (depositor defined):AID434989, AID435008, AID463079, AID485270, AID492963, AID492964, AID492965, AID493232, AID504699, AID504701]. It counts as functional.
Test [5] concerns the target T1, Orexin receptor type 2. The test is described as follows: Counterscreen assay for antagonists of the orexin 1 receptor (OX1R; HCRTR1): Homogeneous Time Resolved Fluorescence (HTRF)-based cell-based dose response assay for antagonists of the orexin 2 receptor (OX2R; HCRTR2), run by assay provider. Format: functional.
In a further test the test system is CHO. Description: cytotoxicity in TLR9-MyD88 CHO cells, dose response, cytotoxicity control for TLR9-MyD88 binding inhibitor project, cell-based, luminescence (AID 588339).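 Also: CHO cells stably coexpressing TLR9 and MyD88 fusions from primary screen; compound exposure lasted 48 hours before viability readout.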 It counts as functional, hamster. The conditions noted are these: Cricetulus griseus.
A further test concerns the target Beta Lactamase (Pseudomonas aeruginosa, UniProt Q932Y6). Description: beta-lactamase reporter inhibitor potency, dose response, artefact control for TLR9-MyD88 binding inhibitor project, BLA reporter cells, FRET fluorescence (AID 588341).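 Also: cell based assay in CHO-K1 cells stably expressing beta-lactamase.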 Format: cell-based.
The nature of test [6]: THP-1 cell cytotoxicity, cytotoxicity control, set 6 (AID 602433). Format: functional. The conditions noted are these: Mycobacterium tuberculosis.
A short description of test [7]: Vero cell cytotoxicity, cytotoxicity control for M. tuberculosis inhibitor project, purified and synthesized samples, set 8 (AID 602431). It counts as functional. The conditions noted are these: Mycobacterium tuberculosis.

One may read the IC50 as the concentration that gives 50% inhibition. The term CC50 denotes the concentration giving 50% cytotoxicity.

Activity calls are given as the source filed them. Rule as the data show it, for most assays here: active = IC50 of 10 µM or less and inactive = more.

T1 sequence (O43614 whole entry): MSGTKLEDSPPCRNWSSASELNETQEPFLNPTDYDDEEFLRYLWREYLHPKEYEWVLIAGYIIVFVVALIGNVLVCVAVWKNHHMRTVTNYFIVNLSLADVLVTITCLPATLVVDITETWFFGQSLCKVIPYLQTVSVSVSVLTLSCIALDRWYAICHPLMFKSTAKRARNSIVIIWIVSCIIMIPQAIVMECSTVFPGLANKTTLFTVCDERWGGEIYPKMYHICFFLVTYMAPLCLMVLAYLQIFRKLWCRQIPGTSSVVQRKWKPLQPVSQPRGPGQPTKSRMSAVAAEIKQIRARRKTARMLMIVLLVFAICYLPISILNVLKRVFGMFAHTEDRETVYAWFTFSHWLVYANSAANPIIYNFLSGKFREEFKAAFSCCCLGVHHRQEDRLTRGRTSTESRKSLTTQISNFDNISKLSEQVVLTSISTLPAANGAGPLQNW
Sequence of Beta Lactamase (Q932Y6 whole entry): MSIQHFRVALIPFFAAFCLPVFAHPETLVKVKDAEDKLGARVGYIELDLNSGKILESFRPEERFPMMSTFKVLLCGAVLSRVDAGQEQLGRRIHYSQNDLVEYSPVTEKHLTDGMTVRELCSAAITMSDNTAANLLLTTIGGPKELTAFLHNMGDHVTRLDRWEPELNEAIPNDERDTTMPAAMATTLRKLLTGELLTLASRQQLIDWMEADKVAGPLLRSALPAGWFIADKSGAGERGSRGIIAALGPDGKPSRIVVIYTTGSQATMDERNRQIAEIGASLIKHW

For the molecule `CCOc1ccccc1N1CCN(C(=O)c2ccc(S(=O)(=O)Nc3ccccc3)cc2)CC1`, the IC50 with CHO-K1 was > 66.2 µM (inactive); on Orexin receptor type 2 [1], 42.5 µM (inactive); in test [2] it was 1.12 µM (active); in test [3] it was 15.1 µM (inactive); in test [4], 25.6 µM (inactive); on Orexin receptor type 2 [5] it was > 50 µM (inactive).
Consider `CCN(CC)c1ccc(/C=C/C(=O)C2C(=O)C=C(C)OC2=O)cc1` (stereo not given), for which the IC50 is > 49.7 µM (inactive) in the test on CHO and 4.88 µM (active) at Beta Lactamase.
As for `CC1CCCN(c2c(NCc3ccc(C(=O)N4CC=C(c5ccccc5)CC4)cc3)c(=O)c2=O)C1` (stereo not given), the CC50 in test [6] is 17.4 µM (active); in test [7] it was 67.2 µM (active).

(Values after ChEMBL document CHEMBL1201862, “PubChem BioAssay data set” (2004).)
